Calls of active or inactive are those of the source. No cut-off for these calls is given here.

What is called Cmax is the maximum level reached in the sampled fluid or tissue. A word on the AUC(0-t): it is the area under the concentration-time curve up to a stated or last time point. The low end stands for less exposure, the high end for more exposure.

One data set concerns HPAF-II. The experiment in a line: Antiproliferative activity against human HPAF-II cells assessed as inhibition of cell growth measured after 72 hrs by SRB assay. Type of data set: functional, cell-based. (In general: In SRB staining, fixed cells bind dye roughly in proportion to their protein.)
Another data set has as its system Panc 04.03. The experiment in a line: Antiproliferative activity against human Panc 04.03 cells assessed as inhibition of cell growth measured after 72 hrs by SRB assay. In kind it is functional, cell-based.
For data set [1], the system named is PANC-1. The experiment in a line: Induction of apoptosis in human PANC-1 cells measured after 24 hrs by Annexin V-FITC/PI staining based flow cytometry analysis. In kind it is functional, cell-based. To be noted: dose 5-12.5 µM. On the technique in general: Flow cytometry measures light scatter and fluorescence of single cells or particles in a stream.
In data set [2] the test system is PANC-1. The experiment in a line: Effect on cell cycle arrest in human PANC-1 cells at 5 to 10 uM measured after 24 hrs by RNaseA/PI staining based flow cytometry analysis. In kind it is functional. To be noted: dose 5-10 µM.
Data set [3] deals with PANC-1. The experiment in a line: Downregulation of H3K9me2 expression in human PANC-1 cells at 0.1 to 10 uM measured after 24 hrs by Western blot analysis. In kind it is functional, cell-based. As to conditions: dose 0.1-10 µM. (In general: Immunoblotting shows a protein as a band on a membrane.)
Data set [4] relates to KP-4. In words: Synergistic antiproliferative activity against human KP-4 cells at 0 to 10 uM incubated for 72 hrs in presence of MRTX1133 by SRB assay. Type of data set: functional, cell-based. As to conditions: dose 0-10 µM.
A further data set deals with PANC-08-13. The experiment in a line: Synergistic antiproliferative activity against human PANC-08-13 cells assessed as combination index upto 20 uM incubated for 72 hrs in presence of MRTX1133. Type of data set: functional.
The test system of the next data set is Panc 02.03. The experiment in a line: Synergistic antiproliferative activity against human Panc 02.03 cells assessed as combination index for ED90 upto 20 uM incubated for 72 hrs in presence of MRTX1133. In kind it is functional.
Data set [5] has as its system KP-4. In words: Inhibition of colony formation in human KP-4 cells at 5 to 10 uM in presence of MRTX1133 measured after 10 to 14 days by crystal violet staining based analysis. In kind it is functional, cell-based. As to conditions: dose 5-10 µM, time 10-14 day.
In a further data set the test system is ASPC1. In words: Induction of apoptosis in human ASPC1 cells at 10 uM incubated for 24 hrs in presence of 1 uM MRTX1133 by Annexin V-FITC/PI staining based flow cytometry analysis. Type of data set: functional, cell-based.
Data set [6] is described as follows: Cmax in male ICR mouse at 20 mg/kg, ip measured upto 24 hrs by LC-MS/MS analysis. As to conditions: in vivo. In kind it is ADME, organism-based.
A short description of data set [7]: AUC (0 to t) in male ICR mouse at 20 mg/kg, ip measured upto 24 hrs by LC-MS/MS analysis. Type of data set: ADME, organism-based. As to conditions: in vivo.
Data set [8] concerns the target Protein cereblon/Histone-lysine N-methyltransferase EHMT2 (Homo sapiens, UniProt Q96KQ7+Q96SW2). In words: PROTAC activity at CRBN/G9a in human PANC-1 cells assessed as induction of G9a degradation at 0.1 uM measured after 24 hrs by Western blot analysis. In kind it is cell-based.
The target of data set [9] is Protein cereblon/Histone-lysine N-methyltransferase EHMT1 (Homo sapiens) (UniProt Q9H9B1+Q96SW2). In words: PROTAC activity at CRBN/GLP in human PANC-1 cells assessed as induction of GLP degradation at 1 uM measured after 8 to 24 hrs by Western blot analysis. Type of data set: cell-based. To be noted: time 8-24 hrs.
Data set [10] concerns PANC-1. The experiment in a line: Effect on H3K36me3 level in human PANC-1 cells at 0.04 to 10 uM measured after 24 hrs by Western blot analysis. As to conditions: dose 0.04-10 µM. Type of data set: functional, cell-based.
In data set [11] the test system is PANC-1. The experiment in a line: Effect on G9a mRNA expression at transcriptional level in human PANC-1 cells at 0.1 to 10 uM by RT-qPCR analysis. In kind it is functional, cell-based. As to conditions: dose 0.1-10 µM.

Sequence of Protein cereblon/Histone-lysine N-methyltransferase EHMT1 (Homo sapiens) (Q96SW2 whole entry, looked up): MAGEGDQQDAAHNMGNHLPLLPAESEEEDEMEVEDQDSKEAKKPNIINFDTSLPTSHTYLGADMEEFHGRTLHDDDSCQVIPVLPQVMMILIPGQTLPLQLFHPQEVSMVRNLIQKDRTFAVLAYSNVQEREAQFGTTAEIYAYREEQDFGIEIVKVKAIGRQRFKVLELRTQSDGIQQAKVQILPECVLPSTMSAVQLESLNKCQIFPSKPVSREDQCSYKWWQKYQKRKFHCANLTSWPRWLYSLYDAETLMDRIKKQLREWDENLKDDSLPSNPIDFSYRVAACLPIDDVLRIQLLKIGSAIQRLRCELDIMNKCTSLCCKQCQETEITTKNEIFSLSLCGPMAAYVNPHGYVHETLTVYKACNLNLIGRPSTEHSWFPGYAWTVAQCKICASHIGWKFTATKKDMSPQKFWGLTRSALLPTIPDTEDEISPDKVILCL
Sequence of Protein cereblon/Histone-lysine N-methyltransferase EHMT1 (Homo sapiens) (Q9H9B1 whole entry, looked up): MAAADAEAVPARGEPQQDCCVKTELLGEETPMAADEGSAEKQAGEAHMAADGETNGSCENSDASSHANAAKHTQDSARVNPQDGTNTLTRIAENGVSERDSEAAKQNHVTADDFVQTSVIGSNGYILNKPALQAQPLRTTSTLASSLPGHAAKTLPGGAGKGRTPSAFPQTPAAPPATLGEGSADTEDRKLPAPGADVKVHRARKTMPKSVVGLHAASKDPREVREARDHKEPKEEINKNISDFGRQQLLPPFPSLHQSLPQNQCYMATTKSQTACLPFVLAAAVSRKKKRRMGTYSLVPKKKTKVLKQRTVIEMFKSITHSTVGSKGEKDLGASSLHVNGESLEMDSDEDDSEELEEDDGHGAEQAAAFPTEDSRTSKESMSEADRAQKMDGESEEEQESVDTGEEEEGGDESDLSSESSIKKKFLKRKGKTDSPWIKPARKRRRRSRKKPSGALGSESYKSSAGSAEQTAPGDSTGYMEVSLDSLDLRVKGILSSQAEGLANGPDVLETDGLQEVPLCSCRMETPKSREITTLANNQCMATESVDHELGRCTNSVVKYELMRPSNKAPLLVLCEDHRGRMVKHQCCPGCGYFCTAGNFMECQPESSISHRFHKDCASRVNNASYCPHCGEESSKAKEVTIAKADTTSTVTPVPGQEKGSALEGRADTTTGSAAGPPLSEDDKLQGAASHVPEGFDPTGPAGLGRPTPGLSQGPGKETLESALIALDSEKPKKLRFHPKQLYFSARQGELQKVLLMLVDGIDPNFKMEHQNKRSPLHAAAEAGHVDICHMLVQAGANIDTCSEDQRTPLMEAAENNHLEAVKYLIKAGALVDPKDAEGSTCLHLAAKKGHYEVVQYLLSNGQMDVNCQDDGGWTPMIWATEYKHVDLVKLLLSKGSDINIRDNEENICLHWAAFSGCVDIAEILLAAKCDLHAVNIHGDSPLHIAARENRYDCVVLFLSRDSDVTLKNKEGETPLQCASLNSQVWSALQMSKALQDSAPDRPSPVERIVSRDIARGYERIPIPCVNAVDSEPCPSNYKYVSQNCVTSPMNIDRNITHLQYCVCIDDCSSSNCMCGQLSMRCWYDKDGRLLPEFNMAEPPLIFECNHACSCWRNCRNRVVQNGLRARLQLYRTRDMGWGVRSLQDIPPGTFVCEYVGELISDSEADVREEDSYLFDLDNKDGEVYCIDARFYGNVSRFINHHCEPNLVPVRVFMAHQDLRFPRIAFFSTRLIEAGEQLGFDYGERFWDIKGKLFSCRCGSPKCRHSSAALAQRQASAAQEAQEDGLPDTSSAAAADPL
Sequence of Protein cereblon/Histone-lysine N-methyltransferase EHMT2 (Q96KQ7 2-1210 limits assumed): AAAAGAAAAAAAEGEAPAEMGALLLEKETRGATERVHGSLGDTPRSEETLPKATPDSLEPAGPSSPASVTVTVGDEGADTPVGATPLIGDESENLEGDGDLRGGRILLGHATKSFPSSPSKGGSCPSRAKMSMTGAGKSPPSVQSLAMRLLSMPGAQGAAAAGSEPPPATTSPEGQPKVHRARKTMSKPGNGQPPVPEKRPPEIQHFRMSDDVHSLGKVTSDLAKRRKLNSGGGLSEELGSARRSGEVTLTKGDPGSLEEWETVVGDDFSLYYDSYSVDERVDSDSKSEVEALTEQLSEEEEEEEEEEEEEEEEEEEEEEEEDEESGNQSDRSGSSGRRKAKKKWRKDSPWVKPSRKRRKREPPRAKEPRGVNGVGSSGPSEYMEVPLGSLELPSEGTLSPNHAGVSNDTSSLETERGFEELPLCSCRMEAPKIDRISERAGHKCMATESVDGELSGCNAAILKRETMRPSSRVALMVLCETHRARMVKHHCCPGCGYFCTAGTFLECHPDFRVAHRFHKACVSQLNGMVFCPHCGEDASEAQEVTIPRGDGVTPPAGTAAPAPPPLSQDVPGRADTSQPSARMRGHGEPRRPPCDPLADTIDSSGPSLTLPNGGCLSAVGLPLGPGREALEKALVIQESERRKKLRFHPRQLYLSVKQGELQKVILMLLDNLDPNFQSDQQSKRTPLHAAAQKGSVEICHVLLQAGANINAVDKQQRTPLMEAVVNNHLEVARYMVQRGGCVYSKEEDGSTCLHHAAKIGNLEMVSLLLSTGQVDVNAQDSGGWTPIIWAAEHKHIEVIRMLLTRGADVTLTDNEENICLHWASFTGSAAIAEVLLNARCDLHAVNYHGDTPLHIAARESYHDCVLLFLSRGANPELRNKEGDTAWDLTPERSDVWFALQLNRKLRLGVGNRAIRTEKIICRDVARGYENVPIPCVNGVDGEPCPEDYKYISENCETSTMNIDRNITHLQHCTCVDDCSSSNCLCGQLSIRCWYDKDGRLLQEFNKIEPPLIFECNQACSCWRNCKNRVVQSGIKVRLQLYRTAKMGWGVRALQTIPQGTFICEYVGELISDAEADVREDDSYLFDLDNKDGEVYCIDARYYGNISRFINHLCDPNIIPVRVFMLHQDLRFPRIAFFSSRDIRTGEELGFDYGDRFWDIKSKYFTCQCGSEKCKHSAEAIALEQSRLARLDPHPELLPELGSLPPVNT
Sequence of Protein cereblon/Histone-lysine N-methyltransferase EHMT2 (Q96SW2 whole entry partner): as the sequence (Q96SW2 whole entry, looked up) above

For the molecule `COc1cc2c(NC3CCN(CCCC(=O)NCCCCCCCCNc4cccc5c4C(=O)N(C4CCC(=O)NC4=O)C5=O)CC3)nc(C3CCCCC3)nc2cc1OCCCN1CCCC1` (stereo unspecified), the result with HPAF-II, in the data set on Panc 04.03, with PANC-1 [2], in the data set on PANC-1 [3], with KP-4 [4] and with ASPC1 was Active. The result in [8] was Active. The Activity entry in the data set with PANC-1 [1] is “Dose-Dependent Effect”. Further, the values for the CI with PANC-08-13 and with Panc 02.03 were below 0.8 and below 0.4, respectively. For the same molecule, the inhibition entry in the data set on KP-4 [5] was “Active”. The molecule also gave a Cmax in data set [6] of 2670 ng/mL. In data set [7], this molecule displayed an area under the curve AUC(0-t) at 24 h of 6150 ng·h/mL. The outcome (in data set [9]; in the data set with PANC-1 [10]; in the data set with PANC-1 [11]) was inactive.
